Experimental data as given in patent US11760722B2 (priority 2022, dated 2023).

The molecules below were run on SARS-CoV-2 Delta USA/MD-HP05647/2021 (Lineage B.1.617.2) (assay: microbe, parasite or virus in culture). Conditions: Severe acute respiratory syndrome coronavirus 2, Vero C1008, 4 h; read-out: Vero E6 Delta CPE/EC50.
Assay type: cell-based

Compound	EC50 [nM]
CC(C)(C)[C@H](NC(=O)C(F)(F)C(F)(F)Cl)C(=O)N1C[C@H]2[C@@H]([C@H]1C(=O)N[C@H](C#N)C[C@@H]1CCNC1=O)C2(C)C [Compound 80]	20.2
CNC(=S)N[C@H](C(=O)N1C[C@H]2[C@@H]([C@H]1C(=O)N[C@H](C#N)C[C@@H]1CCNC1=O)C2(C)C)C(C)(C)C [Compound 35]	77.9
CC(C)(C)[C@H](NS(=O)(=O)c1ccc(F)cc1)C(=O)N1C[C@H]2[C@@H]([C@H]1C(=O)N[C@H](C#N)C[C@@H]1CCNC1=O)C2(C)C [Compound 53, (1R,2S,5S)—N—((S)-1-cyano-2-((S)-2-oxopyrrolidin-3-yl)ethyl)-3-((S)-2-((4-fluorophenyl)sulfonamido)-3,3-dimethylbutanoyl)-6,6-dimethyl-3-azabicyclo[3.1.0]hexane-2-carboxamide]	14.9
CC(C)(C)[C@H](NS(=O)(=O)c1ccc(F)s1)C(=O)N1C[C@H]2[C@@H]([C@H]1C(=O)N[C@H](C#N)C[C@@H]1CCNC1=O)C2(C)C [Compound 113]	16.6
CC(C)(C)[C@H](NS(=O)(=O)N1CCOCC1)C(=O)N1C[C@H]2[C@@H]([C@H]1C(=O)N[C@H](C#N)C[C@@H]1CCNC1=O)C2(C)C [Compound 49]	1580
CC(C)(C)[C@H](NS(=O)(=O)c1ccc(C(F)(F)F)cc1)C(=O)N1C[C@H]2[C@@H]([C@H]1C(=O)N[C@H](C#N)C[C@@H]1CCNC1=O)C2(C)C [Compound 90]	3.4
CC(C)[C@H]1CC[C@H](C)C[C@@H]1OCC(=O)N[C@H](C(=O)N1C[C@H]2[C@@H]([C@H]1C(=O)N[C@H](C#N)C[C@@H]1CCNC1=O)C2(C)C)C(C)(C)C [Compound 110]	2020
CC(C)(C)[C@H](NC(=O)C12CC(F)(C1)C2)C(=O)N1C[C@H]2[C@@H]([C@H]1C(=O)N[C@H](C#N)C[C@@H]1CCNC1=O)C2(C)C [Compound 34]	275
CC1(C)[C@@H]2[C@@H](C(=O)N[C@H](C#N)C[C@@H]3CCNC3=O)N(C(=O)[C@@H](NC(=O)C(F)(F)F)C34CC(C3)C4)C[C@@H]21 [Compound 50]	571
CC(C)(C)[C@H](NC(=O)C12CC(C1)C2)C(=O)N1C[C@H]2[C@@H]([C@H]1C(=O)N[C@H](C#N)C[C@@H]1CCNC1=O)C2(C)C [Compound 20]	377
CC(C)(C)[C@H](NC(=O)C(F)(Cl)C(F)(F)F)C(=O)N1C[C@H]2[C@@H]([C@H]1C(=O)N[C@H](C#N)C[C@@H]1CCNC1=O)C2(C)C (stereo partly shown) [Compound 75]	45
CC(C)(C)[C@H](NS(=O)(=O)c1ccc(Cl)s1)C(=O)N1C[C@H]2[C@@H]([C@H]1C(=O)N[C@H](C#N)C[C@@H]1CCNC1=O)C2(C)C [Compound 54]	< 4.5
CC(C)(C)[C@H](NS(=O)(=O)c1ccc(C2CC2)cc1)C(=O)N1C[C@H]2[C@@H]([C@H]1C(=O)N[C@H](C#N)C[C@@H]1CCNC1=O)C2(C)C [Compound 121]	< 4.5
CCCc1ccc(S(=O)(=O)N[C@H](C(=O)N2C[C@H]3[C@@H]([C@H]2C(=O)N[C@H](C#N)C[C@@H]2CCNC2=O)C3(C)C)C(C)(C)C)s1 [Compound 171]	80.8
CC(C)(C)[C@H](NS(=O)(=O)c1ccc2ccccc2c1)C(=O)N1C[C@H]2[C@@H]([C@H]1C(=O)N[C@H](C#N)C[C@@H]1CCNC1=O)C2(C)C [Compound 102]	< 4.5
Cc1ccc(S(=O)(=O)N[C@H](C(=O)N2C[C@H]3[C@@H]([C@H]2C(=O)N[C@H](C#N)C[C@@H]2CCNC2=O)C3(C)C)C(C)(C)C)s1 [Compound 118]	23.5

Compound	EC50 [nM]
CC(C)(C)NC(=O)N[C@H](C(=O)N1C[C@H]2[C@@H]([C@H]1C(=O)N[C@H](C#N)C[C@@H]1CCNC1=O)C2(C)C)C(C)(C)C [Compound 87]	577
CC(C)(C)[C@H](NS(=O)(=O)c1cccc2ccccc12)C(=O)N1C[C@H]2[C@@H]([C@H]1C(=O)N[C@H](C#N)C[C@@H]1CCNC1=O)C2(C)C [Compound 85]	< 4.5
CC(C)(C)[C@H](NS(=O)(=O)c1cc2ccccc2s1)C(=O)N1C[C@H]2[C@@H]([C@H]1C(=O)N[C@H](C#N)C[C@@H]1CCNC1=O)C2(C)C [Compound 111]	< 4.5
CN(C)S(=O)(=O)N[C@H](C(=O)N1C[C@H]2[C@@H]([C@H]1C(=O)N[C@H](C#N)C[C@@H]1CCNC1=O)C2(C)C)C(C)(C)C [Compound 47, (1R,2S,5S)—N—((S)-1-cyano-2-((S)-2-oxopyrrolidin-3-yl)ethyl)-3-((S)-2-((N,N-dimethylsulfamoyl)amino)-3,3-dimethylbutanoyl)-6,6-dimethyl-3-azabicyclo[3.1.0]hexane-2-carboxamide]	242
CN(C)[C@@H]1C[C@@H](C(=O)N[C@H](C#N)C[C@@H]2CCNC2=O)N(C(=O)[C@@H](NC(=O)C(F)(F)F)C(C)(C)C)C1 [Compound 116]	4000
CC(C)(C)[C@H](NC(=O)NC1(CS(=O)(=O)C(C)(C)C)CCCCC1)C(=O)N1C[C@H]2[C@@H]([C@H]1C(=O)N[C@H](C#N)C[C@@H]1CCNC1=O)C2(C)C [Compound 16]	2980
CC(C)(C)[C@H](NC(=O)C1(C(F)(F)F)CC1)C(=O)N1C[C@H]2[C@@H]([C@H]1C(=O)N[C@H](C#N)C[C@@H]1CCNC1=O)C2(C)C [Compound 151]	1630
CC(C)(C)[C@H](NC(=O)Cc1ccc2c(c1)CCC2)C(=O)N1C[C@H]2[C@@H]([C@H]1C(=O)N[C@H](C#N)C[C@@H]1CCNC1=O)C2(C)C [Compound 82]	9.52
Cc1cc(S(=O)(=O)N[C@H](C(=O)N2C[C@H]3[C@@H]([C@H]2C(=O)N[C@H](C#N)C[C@@H]2CCNC2=O)C3(C)C)C(C)(C)C)sc1Cl [Compound 168]	21.8
CC(C)(C)[C@H](NS(=O)(=O)c1sccc1Cl)C(=O)N1C[C@H]2[C@@H]([C@H]1C(=O)N[C@H](C#N)C[C@@H]1CCNC1=O)C2(C)C [Compound 114]	16.4
CC(C)(C)[C@H](NS(=O)(=O)c1cccnc1)C(=O)N1C[C@H]2[C@@H]([C@H]1C(=O)N[C@H](C#N)C[C@@H]1CCNC1=O)C2(C)C [Compound 93]	372
CC(C)(C)[C@H](NC(=O)C(F)(F)C(F)(F)C(F)(F)F)C(=O)N1C[C@H]2[C@@H]([C@H]1C(=O)N[C@H](C#N)C[C@@H]1CCNC1=O)C2(C)C [Compound 133]	437
C=C(F)C(=O)N[C@H](C(=O)N1C[C@H]2[C@@H]([C@H]1C(=O)N[C@H](C#N)C[C@@H]1CCNC1=O)C2(C)C)C(C)(C)C [Compound 66]	93.5
CC(C)(C)c1ccc(S(=O)(=O)N[C@H](C(=O)N2C[C@H]3[C@@H]([C@H]2C(=O)N[C@H](C#N)C[C@@H]2CCNC2=O)C3(C)C)C(C)(C)C)s1 [Compound 117]	337
CC(C)(C)[C@H](NC(=O)c1ccc2c(c1)CCC2)C(=O)N1C[C@H]2[C@@H]([C@H]1C(=O)N[C@H](C#N)C[C@@H]1CCNC1=O)C2(C)C [Compound 120]	8000
CN(C)C(=S)N[C@H](C(=O)N1C[C@H]2[C@@H]([C@H]1C(=O)N[C@H](C#N)C[C@@H]1CCNC1=O)C2(C)C)C(C)(C)C [Compound 77]	1540

Same assay, conditions: read-out: Vero E6 Delta CPE/EC50

Compound	EC50 [nM]
CNC(=S)N[C@H](C(=O)N1C[C@H]2[C@@H]([C@H]1C(=O)N[C@H](C#N)C[C@@H]1CCNC1=O)C2(C)C)C(C)(C)C [Compound 35]	148
CC(C)(C)[C@H](NS(=O)(=O)c1ccc(F)cc1)C(=O)N1C[C@H]2[C@@H]([C@H]1C(=O)N[C@H](C#N)C[C@@H]1CCNC1=O)C2(C)C [Compound 53, (1R,2S,5S)—N—((S)-1-cyano-2-((S)-2-oxopyrrolidin-3-yl)ethyl)-3-((S)-2-((4-fluorophenyl)sulfonamido)-3,3-dimethylbutanoyl)-6,6-dimethyl-3-azabicyclo[3.1.0]hexane-2-carboxamide]	20.4
CC(C)(C)[C@H](NC(=O)C12CC(C1)C2)C(=O)N1C[C@H]2[C@@H]([C@H]1C(=O)N[C@H](C#N)C[C@@H]1CCNC1=O)C2(C)C [Compound 20]	392
CC(C)(C)[C@H](NC(=O)C(F)(Cl)C(F)(F)F)C(=O)N1C[C@H]2[C@@H]([C@H]1C(=O)N[C@H](C#N)C[C@@H]1CCNC1=O)C2(C)C (stereo partly shown) [Compound 75]	50
C=C(F)C(=O)N[C@H](C(=O)N1C[C@H]2[C@@H]([C@H]1C(=O)N[C@H](C#N)C[C@@H]1CCNC1=O)C2(C)C)C(C)(C)C [Compound 66]	97.8
